Reference: US8426429B2, “2-amino-quinazoline derivatives useful as inhibitors of β-secretase (BACE)” (Jansssen Pharmaceutica N.V., priority 2004, dated 2013)

Key:
[1] = molecular target: T1, β-secretase (BACE) (Homo sapiens, UniProt P56817); test: BACE % Inhibition Assay ((Aedens)-[…]-(Dabcyl K-amide) substrate); assay type: biochemical; conditions: % error ±10%
T1 construct: purchased Panvera
Description: The substrate stock solution was prepared in DMSO as a 10 mg/mL solution. The substrate working solution was prepared by diluting the 10 mg/mL stock solution with substrate assay buffer to a final concentration of […]. The β-secretase (BACE) working solution was prepared by diluting a 0.83 mg/mL BACE stock solution with enzyme assay buffer to a final concentration of 4 μg/mL.
Test compounds were dissolved in DMSO to 10 mM.
The screening procedure for this assay was as follows: 15 μL of BACE working solution was pipetted into each well of a 96-well plate. To each well was then pipetted 2 μL of test compound at the selected concentration. Test compound and BACE were then mixed with a pipettor and incubated for 20 min at room temperature. To each well was then added 10 μL of the substrate working solution. The plates were then incubated for 1 hour at room temperature.
The procedure for the blank was as follows. 15 μL of assay buffer was pipetted into each well to be used as a blank control. To each well was then added 2 μL of vehicle and 10 μL of substrate working solution. The plates were then incubated for 1 hour at room temperature.
The procedure for the positive control was as follows: 15 μl of BACE working solution was pipetted into each well to be used as a positive control. To each well was then pipetted 2 μL of vehicle. Vehicle and BACE were then mixed with a pipettor and incubated for 20 min at room temperature. To each well was then added 10 μL of the substrate working solution. The plates were the incubated for 1 hour at room temperature.
For test compounds, % inhibition was determined at each concentration as follows: […]

[2] = molecular target: T1, β-secretase (BACE); test: BACE FS1 % Inhibition Assay; assay type: biochemical; conditions: FS1 substrate
Summary of the method: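 Percent inhibition per compound concentration was referenced to vehicle-treated enzyme and no-enzyme wells. Enzyme at a 4 μg/mL working stock plus compound was mixed for 20 min at room temperature before the FS1 substrate (300 μg/mL working stock) was added for a 1 h room-temperature reaction.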

T1 sequence (P56817 46-501): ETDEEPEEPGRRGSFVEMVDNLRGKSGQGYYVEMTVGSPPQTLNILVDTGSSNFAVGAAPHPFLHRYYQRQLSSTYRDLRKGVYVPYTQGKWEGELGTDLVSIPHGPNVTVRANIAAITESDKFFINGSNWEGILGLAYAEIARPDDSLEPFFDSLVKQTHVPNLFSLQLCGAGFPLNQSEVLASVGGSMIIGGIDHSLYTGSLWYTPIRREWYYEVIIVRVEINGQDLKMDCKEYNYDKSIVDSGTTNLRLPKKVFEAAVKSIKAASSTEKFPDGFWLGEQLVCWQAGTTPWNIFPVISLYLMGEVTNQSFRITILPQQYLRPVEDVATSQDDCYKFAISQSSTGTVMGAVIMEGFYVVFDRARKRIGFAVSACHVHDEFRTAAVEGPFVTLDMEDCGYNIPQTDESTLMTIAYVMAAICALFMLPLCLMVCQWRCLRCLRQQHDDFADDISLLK

Compound | % Inhibition ([1]; 3 μM compound) | % Inhibition ([1]; 10 μM compound) | % Inhibition (FS) ([2]; 0.3 μM compound) | % Inhibition (FS) ([2]; 1 μM compound) | % Inhibition (FS) ([2]; 3 μM compound) | other results
CCOC(=O)CCN1Cc2cc(Oc3ccccc3)ccc2N=C1N [Compound 65] | <30% | <30% | – | – | – | –
CN(C(=O)[C@@H]1CCC[C@@H]1N1Cc2cc(Oc3ccccc3)ccc2N=C1N)C1CCCCC1 [Compound 72] | <30% | <30% | – | – | – | –
CN(C(=O)[C@@H]1CC[C@H](N2Cc3cc(Oc4ccccc4)ccc3N=C2N)C1)C1CCCCC1 [Compound 77] | <30% | <30% | – | – | – | –
CCN(CC)CCN1Cc2cc(Oc3ccccc3)ccc2N=C1N [Compound 79] | <30% | <30% | – | – | – | –
CN(C(=O)[C@H]1CCCC[C@H]1N1Cc2cc(Oc3ccccc3)ccc2N=C1N)C1CCCCC1 [Compound 81] | <30% | <30% | – | – | – | –
CN(C(=O)[C@@H]1CCCC[C@@H]1N1Cc2cc(Oc3ccccc3)ccc2N=C1N)C1CCCCC1 [Compound 87] | <30% | <30% | – | – | – | –
CN(C(=O)[C@@H]1CCCN1C(=O)CN1Cc2cc(Oc3ccccc3)ccc2N=C1N)C1CCCCC1 [Compound 88] | <30% | <30% | – | – | – | –
CN(C(=O)c1cc(CN2Cc3cc(Oc4ccccc4)ccc3N=C2N)ccn1)C1CCCCC1 [Compound 89] | 77% | 81% | – | – | – | –
CC(C)(C)OC(=O)N1CCC(N2Cc3cc(Oc4ccccc4)ccc3N=C2N)C1 (stereo not drawn) [Compound 93] | <30% | <30% | – | – | – | –
CN(C(=O)c1cccc(N2Cc3cc(Oc4ccccc4)ccc3N=C2N)c1)C1CCCCC1 [Compound 94] | <30% | <30% | – | – | – | –
CN(C(=O)c1ccc(CN2Cc3cc(Oc4ccccc4)ccc3N=C2N)cc1)C1CCCCC1 [Compound 97] | <30% | 53% | – | – | – | –
CN(C(=O)C1CCC(CN2Cc3cc(Oc4ccccc4)ccc3N=C2N)CC1)C1CCCCC1 (stereo not drawn) [Compound 100] | <30% | <30% | – | – | – | –
Cc1ccc(S(=O)(=O)NCCN2Cc3cc(Oc4ccccc4)ccc3N=C2N)cc1 [Compound 109] | <30% | 58% | – | – | – | –
CC(C)(C)C(=O)NCC(C1CCCCC1)N1Cc2cc(Oc3ccccc3)ccc2N=C1N (stereo not drawn) [Compound 317] | – | – | – | – | – | % Inhibition ([1]; 0.3 μM compound): <30%; % Inhibition ([1]; 1 μM compound): 66%
COc1ccccc1-c1ccc2c(c1)CN([C@@H](CCC(=O)N(C)Cc1csc(-c3ccccc3)n1)C1CCCCC1)C(N)=N2 [Compound 716] | – | – | <30% | <30% | 72% | –
COc1ccccc1-c1ccc2c(c1)CN([C@@H](CCC(=O)N(C)Cc1cnn(-c3ccccc3)c1)C1CCCCC1)C(N)=N2 [Compound 717] | – | – | 33% | 39% | 72% | –
COc1ccccc1-c1ccc2c(c1)CN([C@@H](CCC(=O)N(C)Cc1cc(C)no1)C1CCCCC1)C(N)=N2 [Compound 718] | – | – | <30% | 30% | – | –
COc1ccccc1-c1ccc2c(c1)CN([C@@H](CCC(=O)N(C)Cc1cc(-c3ccccc3)on1)C1CCCCC1)C(N)=N2 [Compound 719] | – | – | 31% | <30% | 81% | –
CN(Cc1csc(-c2ccccc2)n1)C(=O)CC[C@@H](C1CCCCC1)N1Cc2cc(-c3ccccc3F)ccc2N=C1N [Compound 722] | – | – | 35% | 35% | 78% | –
CN(Cc1cc(-c2ccccc2)on1)C(=O)CC[C@@H](C1CCCCC1)N1Cc2cc(-c3ccccc3F)ccc2N=C1N [Compound 724] | – | – | 38% | <30% | 65% | –
CN(CCc1ccccc1)C(=O)CC[C@@H](C1CCCCC1)N1Cc2cc(-c3ccccc3F)ccc2N=C1N [Compound 727] | – | – | 46% | 80% | – | –

Compound | % Inhibition ([1]; 3 μM compound) | % Inhibition ([1]; 10 μM compound) | % Inhibition (FS) ([2]; 0.3 μM compound) | % Inhibition (FS) ([2]; 1 μM compound) | % Inhibition (FS) ([2]; 3 μM compound) | other results
CCOC(=O)C1CCC(N(C)C(=O)CCC(C2CCCCC2)N2Cc3cc(Oc4ccccc4)ccc3N=C2N)CC1 (stereo not drawn) [Compound 737] | – | – | – | – | – | % Inhibition (FS) ([2]; 0.3 μM compound, 0.3 µM): 22%; % Inhibition (FS) ([2]; 1 μM compound, 1 µM): 34%; % Inhibition (FS) ([2]; 3 μM compound, 3 µM): 97%
CN(C(=O)CCC(C)(C)N1Cc2cc(Oc3ccccc3)ccc2N=C1N)C1CCCCC1 [Compound 738] | – | – | 14% | 28% | 61% | –
CN(C(=O)CCC(C1CCCCC1)N1Cc2cc(Oc3ccccc3)ccc2N=C1N)C1(C(=O)O)CCCCC1 (stereo not drawn) [Compound 741] | – | – | −48% | −38% | −25% | –
CN(C(=O)CCC(C1CCOCC1)N1Cc2cc(Oc3ccccc3)ccc2N=C1N)C1CCC(C(=O)O)CC1 (stereo not drawn) [Compound 743] | – | – | – | – | 130% | –
CN(C(=O)CC[C@@H](C1CCOCC1)N1Cc2cc(Oc3ccccc3)ccc2N=C1N)[C@H]1CC[C@@H](C(=O)O)CC1 [Compound 745, (S)-Enantiomer of 4-cis-{[4-(2-Amino-6-phenoxy-4H-quinazolin-3-yl)-4-(tetrahydro-pyran-4-yl)-butyryl]-methyl-amino}-cyclohexanecarboxylic acid] | – | – | – | – | – | % Inhibition (FS) ([2]; 0.3 μM compound, 0.3 µM): 115%; % Inhibition (FS) ([2]; 1 μM compound, 1 µM): 114%; inhibition at 3 µM ([2]; 3 μM compound, read-out: % Inhibition (FS)): 114%
CN(C(=O)CC[C@@H](C1CCOCC1)N1Cc2cc(Oc3ccccc3)ccc2N=C1N)[C@H]1CC[C@@H](C(=O)O)CC1 [Compound 748] | – | – | – | – | – | % Inhibition (FS) ([2]; 0.3 μM compound, 0.3 µM): 20%; % Inhibition (FS) ([2]; 1 μM compound, 1 µM): 71%; % Inhibition (FS) ([2]; 3 μM compound, 3 µM): 97%
CN(C(=O)CC[C@@H](C1CCCCC1)N1Cc2ccc(Oc3ccccc3)cc2N=C1N)C1CCCCC1 [Compound 754] | – | – | 8% | 35% | 89% | –
CN(C(=O)CCC(C1CCCCC1)N1Cc2cc(Oc3ccccc3)ccc2N=C1N)C1CCC(C(=O)OCc2ccccc2)CC1 (stereo not drawn) [Compound 760] | – | – | <30% | 44% | 89% | –
CCOC(=O)C1CCC(N(C)C(=O)CCC(C2CCCCC2)N2Cc3cc(Oc4ccccc4)ccc3N=C2N)CC1 (stereo not drawn) [Compound 763] | – | – | – | – | – | % Inhibition (FS) ([2]; 0.3 μM compound, 0.3 µM): <30%; % Inhibition (FS) ([2]; 1 μM compound, 1 µM): 84%
CNC(=O)C1CCC(N(C)C(=O)CCC(C2CCCCC2)N2Cc3cc(Oc4ccccc4)ccc3N=C2N)CC1 (stereo not drawn) [Compound 765] | – | – | <30% | 56% | 97% | –
CN(C(=O)CCC(C1CCCCC1)N1Cc2cc(Oc3ccccc3)ccc2N=C1N)c1ccc(C(=O)O)cc1 (stereo not drawn) [Compound 766] | – | – | <30% | <30% | <30% | –
CN(CC(=O)O)C(=O)CCC(C1CCCCC1)N1Cc2cc(Oc3ccccc3)ccc2N=C1N (stereo not drawn) [Compound 767] | – | – | <30% | 71% | – | –
CN(C(=O)CCC(C1CCCCC1)N1Cc2cc(Oc3ccccc3)ccc2N=C1N)C1CCC(C#N)CC1 (stereo not drawn) [Compound 769] | – | – | <30% | 61% | – | –
CN(C(=O)CCC(C1CCCCC1)N1Cc2cc(Oc3ccccc3)ccc2N=C1N)C1CCC(c2nn[nH]n2)CC1 (stereo not drawn) [Compound 770] | – | – | <30% | <30% | <30% | –
NC1=Nc2ccc(Oc3ccccc3)cc2CN1[C@@H](CCC(=O)N[C@@H](CO)C(=O)O)C1CCOCC1 [Compound 771] | – | – | 46% | 79% | 105% | –
COC(=O)Cc1cccc(CN(C)C(=O)CCC(C2CCCCC2)N2Cc3cc(Oc4ccccc4)ccc3N=C2N)c1 (stereo not drawn) [Compound 775] | – | – | <30% | 62% | – | –
CN(Cc1cccc(CC(=O)O)c1)C(=O)CCC(C1CCCCC1)N1Cc2cc(Oc3ccccc3)ccc2N=C1N (stereo not drawn) [Compound 778] | – | – | <30% | 77% | – | –
COC(=O)[C@@H](COCc1ccccc1)N(C)C(=O)CC[C@@H](C1CCCCC1)N1Cc2cc(Oc3ccccc3)ccc2N=C1N [Compound 779] | – | – | 102% | 107% | 120% | –
COC(=O)C(COCc1ccccc1)N(C)C(=O)CCC(C1CCCCC1)N1Cc2cc(Oc3ccccc3)ccc2N=C1N (stereo not drawn) [Compound 780] | – | – | 69% | 97% | – | –
NC1=Nc2ccc(Oc3ccccc3)cc2CN1[C@@H](CCC(=O)N[C@@H](COCc1ccccc1)C(=O)O)C1CCOCC1 [Compound 782] | – | – | 104% | 107% | 113% | –
COC(=O)[C@H](COCc1ccccc1)N(C)C(=O)CC[C@@H](C1CCOCC1)N1Cc2cc(Oc3ccccc3)ccc2N=C1N [Compound 786] | – | – | 97% | 105% | 114% | –
